Entries after “also recorded” stand apart in the source; their conditions may differ. Read-outs that look alike come from different tables or passages of the source.

Here are results for four compounds from patent US20260263449A1, “METHODS AND COMPOSITIONS FOR TREATING COCAINE ADDICTION” (The Jackson Laboratory, priority 2023, published 2026).

In one data set the test system is guinea pigs. The conditions noted are these: cited from earlier work.
The test system of data set [1] is C57BL/6NJ mice. The following applies: mouse, in vivo, iv, 10 mg/kg.
Description: (§1) In some embodiments, the hypothermia bioassay described herein is used to determine whether a drug passes the BBB.
(§2) Thus, if mice developed hypothermia following administration of a drug, the drug was determined to cross the blood-brain barrier. […] Both drugs were formulated using 5% Kolliphor® HS-15 and 5% NMP in saline as a vehicle, as using dimethyl sulfoxide (DMSO), a standard solvent, caused hypothermia by itself.
(§3) The temperature of mice was then monitored for 120 minutes following injection.
The next data set deals with mice addicted to cocaine. As to the kind of experiment: cocaine intravenous self-administration (IVSA) in cocaine-addicted mice. Format: in vivo. How it is done:
The efficacy of PNU-109291 treatment in mice addicted to cocaine was tested. Mice first acquired cocaine IVSA at 0.75 mg/kg cocaine per dose at a fixed-ratio-1 reinforcement schedule, then a fixed-ratio-5 schedule until they stabilized their drug-taking behavior. The animals were then injected with descending doses of PNU-109291 prior to IVSA sessions. Doses of PNU-109291 were separated by vehicle injection, and vehicle-first versus agonist-first order was randomized and counterbalanced.

Another data set addresses T1, 5-HT1A receptor (Homo sapiens, UniProt P08908).
T1 sequence (P08908 1-422): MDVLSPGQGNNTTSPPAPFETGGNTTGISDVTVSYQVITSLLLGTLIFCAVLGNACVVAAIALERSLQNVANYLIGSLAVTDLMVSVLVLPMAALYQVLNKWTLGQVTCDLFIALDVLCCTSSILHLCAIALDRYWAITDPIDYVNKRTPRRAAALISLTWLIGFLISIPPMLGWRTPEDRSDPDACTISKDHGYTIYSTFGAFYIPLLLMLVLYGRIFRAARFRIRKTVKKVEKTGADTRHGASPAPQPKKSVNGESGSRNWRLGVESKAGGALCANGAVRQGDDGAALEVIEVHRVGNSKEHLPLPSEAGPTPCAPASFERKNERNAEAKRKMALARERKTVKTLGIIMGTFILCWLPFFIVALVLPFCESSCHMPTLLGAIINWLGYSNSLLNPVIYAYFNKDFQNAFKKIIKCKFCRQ
The following applies: cited from earlier work.

The target in a further data set is 5-HT2A receptor (Homo sapiens, UniProt P28223). The following applies: cited from earlier work.
Chain of 5-HT2A receptor (P28223 whole entry): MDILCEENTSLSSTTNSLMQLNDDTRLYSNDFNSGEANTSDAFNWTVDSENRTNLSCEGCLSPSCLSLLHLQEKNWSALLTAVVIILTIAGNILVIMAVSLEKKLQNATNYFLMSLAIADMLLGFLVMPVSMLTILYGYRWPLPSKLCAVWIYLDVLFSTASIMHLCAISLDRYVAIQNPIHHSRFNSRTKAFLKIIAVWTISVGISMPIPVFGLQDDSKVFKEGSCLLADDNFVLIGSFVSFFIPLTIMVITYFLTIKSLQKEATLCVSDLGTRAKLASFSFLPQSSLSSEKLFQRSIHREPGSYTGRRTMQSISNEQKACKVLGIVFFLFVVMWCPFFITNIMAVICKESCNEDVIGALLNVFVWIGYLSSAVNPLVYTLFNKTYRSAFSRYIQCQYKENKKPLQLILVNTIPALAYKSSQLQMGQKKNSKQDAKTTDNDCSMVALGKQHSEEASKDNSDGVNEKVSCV
A further data set concerns the target 5-HT1B receptor (Homo sapiens, UniProt P28222). The following applies: cited from earlier work.
Another data set addresses 5-HT1E receptor (Homo sapiens, UniProt P28566). The following applies: cited from earlier work.
Another data set deals with 5-HT2B receptor (Homo sapiens, UniProt P41595). The following applies: cited from earlier work.
Chain of 5-HT2B receptor (P41595 whole entry): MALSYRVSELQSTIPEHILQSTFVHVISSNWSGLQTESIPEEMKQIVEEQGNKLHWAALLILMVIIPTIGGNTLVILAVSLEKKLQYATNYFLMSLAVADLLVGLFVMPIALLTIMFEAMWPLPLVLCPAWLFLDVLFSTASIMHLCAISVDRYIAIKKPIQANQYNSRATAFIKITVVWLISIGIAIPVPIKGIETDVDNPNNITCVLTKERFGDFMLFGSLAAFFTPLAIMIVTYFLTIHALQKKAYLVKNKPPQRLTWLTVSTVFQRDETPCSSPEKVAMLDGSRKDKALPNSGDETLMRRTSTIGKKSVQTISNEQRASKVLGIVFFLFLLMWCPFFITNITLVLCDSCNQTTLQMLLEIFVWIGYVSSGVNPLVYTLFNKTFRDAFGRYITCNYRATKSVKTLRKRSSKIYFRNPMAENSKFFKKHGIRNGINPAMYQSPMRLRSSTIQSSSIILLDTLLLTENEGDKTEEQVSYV
The target in another data set is T2, 5-HT2C receptor (Homo sapiens, UniProt P28335).
T2 sequence (P28335 33-458): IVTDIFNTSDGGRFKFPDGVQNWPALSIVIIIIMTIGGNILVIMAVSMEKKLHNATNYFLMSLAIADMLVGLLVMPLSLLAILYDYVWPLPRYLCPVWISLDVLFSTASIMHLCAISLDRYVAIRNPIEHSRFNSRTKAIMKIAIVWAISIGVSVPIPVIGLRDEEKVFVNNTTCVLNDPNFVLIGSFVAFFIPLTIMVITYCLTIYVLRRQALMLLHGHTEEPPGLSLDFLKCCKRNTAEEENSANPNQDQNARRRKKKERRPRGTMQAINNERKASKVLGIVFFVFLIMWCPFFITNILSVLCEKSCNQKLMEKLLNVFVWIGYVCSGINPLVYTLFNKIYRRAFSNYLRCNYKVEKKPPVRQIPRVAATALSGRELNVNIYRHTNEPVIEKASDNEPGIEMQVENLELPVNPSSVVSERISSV
The conditions noted are these: cited from earlier work.

A further data set has as its target 5-HT6 receptor (Homo sapiens, UniProt P50406). The following applies: cited from earlier work.
The next data set deals with 5-HT7 receptor (Homo sapiens, UniProt P34969). The conditions noted are these: cited from earlier work.
Chain of 5-HT7 receptor (P34969 whole entry): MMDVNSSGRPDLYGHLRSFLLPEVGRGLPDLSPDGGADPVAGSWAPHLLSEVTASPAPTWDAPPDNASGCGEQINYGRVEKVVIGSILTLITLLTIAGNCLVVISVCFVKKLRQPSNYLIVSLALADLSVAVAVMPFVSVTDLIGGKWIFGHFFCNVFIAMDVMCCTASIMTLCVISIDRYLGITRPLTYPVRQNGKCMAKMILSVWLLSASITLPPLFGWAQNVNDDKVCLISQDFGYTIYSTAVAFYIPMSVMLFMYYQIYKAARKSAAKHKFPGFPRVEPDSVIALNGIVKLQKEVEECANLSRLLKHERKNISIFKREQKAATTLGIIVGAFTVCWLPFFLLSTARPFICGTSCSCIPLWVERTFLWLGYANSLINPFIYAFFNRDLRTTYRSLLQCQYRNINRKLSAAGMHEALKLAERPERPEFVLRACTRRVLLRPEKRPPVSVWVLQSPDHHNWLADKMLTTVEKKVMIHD
Data set [2] relates to C57BL/6NJ mice. As to the kind of experiment: hypothermia bioassay for blood-brain barrier penetration in mice.
Description: as §1, §2, §3

Chain of 5-HT1B receptor (P28222 whole entry): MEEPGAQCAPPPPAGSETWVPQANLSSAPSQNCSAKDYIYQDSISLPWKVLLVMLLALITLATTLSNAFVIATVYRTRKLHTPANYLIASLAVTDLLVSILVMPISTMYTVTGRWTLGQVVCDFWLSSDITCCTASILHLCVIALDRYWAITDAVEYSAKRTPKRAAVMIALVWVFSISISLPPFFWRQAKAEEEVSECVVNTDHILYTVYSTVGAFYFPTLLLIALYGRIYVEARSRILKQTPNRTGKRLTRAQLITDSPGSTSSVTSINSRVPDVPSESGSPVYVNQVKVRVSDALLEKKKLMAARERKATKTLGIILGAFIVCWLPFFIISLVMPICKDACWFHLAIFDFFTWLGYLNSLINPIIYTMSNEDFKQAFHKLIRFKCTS
Chain of 5-HT1E receptor (P28566 whole entry): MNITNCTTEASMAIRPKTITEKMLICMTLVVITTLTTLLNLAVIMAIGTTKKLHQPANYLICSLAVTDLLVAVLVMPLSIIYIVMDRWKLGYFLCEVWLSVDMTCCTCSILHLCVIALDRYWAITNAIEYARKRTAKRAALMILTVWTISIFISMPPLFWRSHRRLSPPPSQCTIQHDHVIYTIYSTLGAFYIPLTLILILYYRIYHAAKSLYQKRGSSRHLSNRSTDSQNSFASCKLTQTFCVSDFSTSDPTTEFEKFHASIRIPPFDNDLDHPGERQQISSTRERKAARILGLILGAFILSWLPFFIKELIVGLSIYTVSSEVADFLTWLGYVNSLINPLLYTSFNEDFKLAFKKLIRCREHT
Chain of 5-HT6 receptor (P50406 whole entry): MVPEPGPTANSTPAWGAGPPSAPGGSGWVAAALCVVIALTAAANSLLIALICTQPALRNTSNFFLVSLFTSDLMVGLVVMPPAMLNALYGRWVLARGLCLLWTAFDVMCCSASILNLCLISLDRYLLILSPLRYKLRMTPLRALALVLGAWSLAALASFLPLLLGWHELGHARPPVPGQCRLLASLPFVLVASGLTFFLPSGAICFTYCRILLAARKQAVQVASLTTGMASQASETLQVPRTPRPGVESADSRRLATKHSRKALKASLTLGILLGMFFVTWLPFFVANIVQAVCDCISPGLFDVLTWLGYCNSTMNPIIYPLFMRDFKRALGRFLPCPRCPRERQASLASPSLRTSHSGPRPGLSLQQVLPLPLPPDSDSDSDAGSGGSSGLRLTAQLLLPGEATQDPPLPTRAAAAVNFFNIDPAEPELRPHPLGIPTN

Turning to `CNS(=O)(=O)Cc1ccc2[nH]cc(CCN(C)C)c2c1` [sumatriptan], the central hypothermia result in the data set on guinea pigs (injected subcutaneously, guinea pigs) is reported as “does not”.
Take `CN(C)CCc1c[nH]c2ccc(C[C@H]3COC(=O)N3)cc12` [zolmitriptan]: the “blood-brain barrier penetration, inferred from hypothermia” value with C57BL/6NJ mice [1] is reported as “can bypass the blood-brain barrier”.
For `CNC(=O)c1ccc2c(c1)CCO[C@H]2CCN1CCN(c2ccc(OC)cc2)CC1` [PNU-109291, (S)-3,4-Dihydro-1-[2-[4-(4-methoxyphenyl)-1-piperazinyl]ethyl]-N-methyl-1H-2-benzopyran-6-carboxamide], the “volitional cocaine-taking (total infusions of cocaine self-administered)” value in the data set with mice addicted to cocaine (intravenous pre-treatment, 10 mg/kg body weight, before IVSA session) is “significant dose effect; also recorded: reduced volitional cocaine-taking behavior”. In addition, the inactive lever presses result with mice addicted to cocaine (intravenous pre-treatment, range of doses) was “no differences in inactive lever presses; also recorded: no effect”. The “cocaine self-administration, dose dependence” value in the data set on mice addicted to cocaine (range of doses, cocaine-addicted mice) is given as “dose-dependent decrease in cocaine self-administration”. Besides, the “selectivity for 5-HTR1D over 5-HT1A receptor” value on 5-HT1A receptor is on record as > 600 -fold. For the same compound, the “selectivity for 5-HTR1D over 5-HT2A receptor” value on 5-HT2A receptor was > 600 -fold. Besides, the “activity at 5-HT1B receptor” value at 5-HT1B receptor is “no activity”. Further, the “activity at 5-HT1E receptor” value at 5-HT1E receptor was “no activity”. Moreover, the “activity at 5-HT2B receptor” value on 5-HT2B receptor was “no activity”. On 5-HT2C receptor, the “activity at 5-HT2C receptor” value is recorded as “no activity”. In addition, the “activity at 5-HT6 receptor” value at 5-HT6 receptor is “no activity”. On 5-HT7 receptor, the “activity at 5-HT7 receptor” value was “no activity”. Also, the central hypothermia entry with C57BL/6NJ mice [2] (intravenous administration in mice, dose not given) was “caused central hypothermia at levels comparable to a known BBB-permeable drug”. The “central hypothermia (internal temperature)” value in the data set with C57BL/6NJ mice [2] (intravenous injection, 10 mg/kg, temperature monitored for 120 minutes, vehicle 5% Kolliphor HS-15 and 5% NMP in saline) was “induced central hypothermia”. Also, in the data set with C57BL/6NJ mice [2] (intravenous, 10 mg/kg, mice), the “blood-brain barrier penetration, inferred from hypothermia” value is on record as “can bypass the blood-brain barrier; also recorded: penetrates the blood-brain barrier”.
For `COc1ccc(CNC(=O)/C=C/c2ccc3[nH]cc(CCN(C)C)c3c2)cc1` [GR46611], in the data set on guinea pigs (injected directly into the lateral ventricles of guinea pigs), the central hypothermia result is reported as “caused central hypothermia”.
